According to BigSolDB 2.1:

N[C@@H](C(=O)O)c1ccc(O)cc1
Details	solubility (mole fraction)
in DMF, 278.27 K	1.99e-05
in DMF, 283.23 K	2.39e-05
in DMF, 288.18 K	2.67e-05
in DMF, 293.2 K	3.38e-05
in DMF, 298.39 K	4.03e-05
in DMF, 303.18 K	4.93e-05
in DMF, 308.26 K	6e-05
in DMF, 313.2 K	7.04e-05
in DMF, 318.39 K	8.68e-05
in DMF, 323.15 K	0.000102
in ethanol, 278.28 K	9.26e-05
in ethanol, 283.42 K	9.3e-05
in ethanol, 288.18 K	9.34e-05
in ethanol, 293.24 K	9.37e-05
in ethanol, 298.38 K	9.4e-05
in ethanol, 303.17 K	9.42e-05
in ethanol, 308.39 K	9.43e-05
in ethanol, 313.19 K	9.44e-05
in ethanol, 318.37 K	9.45e-05
in ethanol, 323.26 K	9.45e-05
in methanol, 278.17 K	0.00042
in methanol, 283.22 K	0.000421
in methanol, 288.21 K	0.000421
in methanol, 293.28 K	0.000423
in methanol, 298.24 K	0.000424
in methanol, 303.32 K	0.000425
in methanol, 308.2 K	0.000426
in methanol, 313.26 K	0.000427
in methanol, 318.27 K	0.000429
in methanol, 323.25 K	0.00043
in tetrachloromethane, 278.38 K	0.000225
in tetrachloromethane, 283.23 K	0.000227
in tetrachloromethane, 288.38 K	0.000231
in tetrachloromethane, 293.36 K	0.000234
in tetrachloromethane, 298.29 K	0.000239
in tetrachloromethane, 303.21 K	0.000244
in tetrachloromethane, 308.36 K	0.00025
in tetrachloromethane, 313.3 K	0.000258
in tetrachloromethane, 318.24 K	0.000264
in tetrachloromethane, 323.19 K	0.000272
in toluene, 278.28 K	0.000157
in toluene, 283.33 K	0.000164
in toluene, 288.38 K	0.000165
in toluene, 293.32 K	0.000172
in toluene, 298.23 K	0.000175
in toluene, 303.32 K	0.00018
in toluene, 308.39 K	0.000189
in toluene, 313.37 K	0.000195
in toluene, 318.17 K	0.000205
in toluene, 323.27 K	0.000216
in water, 278.27 K	0.0018
in water, 283.25 K	0.00186
in water, 288.37 K	0.00194
in water, 293.17 K	0.00203
in water, 298.26 K	0.00215
in water, 303.29 K	0.00229
in water, 308.26 K	0.00244
in water, 313.28 K	0.00261
in water, 318.17 K	0.00279
in water, 323.21 K	0.00299
